In article PMC10510324, “A Biomimetic C-Terminal Extension Strategy for Photocaging Amidated Neuropeptides” (Journal of the American Chemical Society, 2023):

Assays:
[1] = cited from earlier work
Description: With the target NPP-caged peptides in hand, we examined their photochemical reactivity in cell-compatible aqueous solution (phosphate-buffered saline, pH 7.2). […] Collectively, they were consumed 25–40 ...

[2] = molecular target: T1, CCK2R (Mus musculus, UniProt P56481); assay: Whole-cell recording of membrane currents, PV interneurons of hippocampal CA1, acute brain slices; assay type: cell-based; conditions: antagonist 1 μM
T1 construct: from tissue; host or cells: acute mouse brain slices, PV interneurons of hippocampal CA1 (PvalbCre; Ai14 mice)
T1 sequence (P56481 1-453): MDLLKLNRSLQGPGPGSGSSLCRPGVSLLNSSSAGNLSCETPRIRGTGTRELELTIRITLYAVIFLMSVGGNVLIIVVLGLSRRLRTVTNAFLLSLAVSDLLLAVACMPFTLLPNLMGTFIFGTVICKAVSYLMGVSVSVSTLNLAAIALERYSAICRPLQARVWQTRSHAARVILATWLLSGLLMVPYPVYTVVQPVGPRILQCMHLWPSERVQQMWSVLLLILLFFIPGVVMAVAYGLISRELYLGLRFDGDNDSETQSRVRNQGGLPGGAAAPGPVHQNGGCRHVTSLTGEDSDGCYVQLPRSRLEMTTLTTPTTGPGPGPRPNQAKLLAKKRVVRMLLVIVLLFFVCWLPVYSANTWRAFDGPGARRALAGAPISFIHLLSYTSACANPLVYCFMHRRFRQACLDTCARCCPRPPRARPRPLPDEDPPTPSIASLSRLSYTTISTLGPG
Description: Photoactivatable neuropeptides are powerful tools that can drive studies into the mechanisms of endogenous receptor signaling in acute brain slices.[3],[8],[40] To determine if NPP-caged peptides are compatible with such experiments, we established electrophysiological assays for measuring the activation of GRPR, OTR, NK1R, and CCK2R in acute brain slices taken from transgenic mice. These assays involved whole cell recordings of membrane currents from genetically defined neurons located in different brain regions where endogenous receptor activation produces inward, excitatory currents that facilitate action potential firing. Neuropeptide receptor-expressing cells were identified for fluorescence-guided, targeted electrophysiological recordings using transgenic mice that contain transgenes encoding Cre-recombinase under a promotor that is specific to the cell of interest, as well as a Cre-dependent tdTomato fluorescent protein via the Ai14 (Rosa26-lsl-tdTomato) reporter strain. […]
(A) Average inward currents over time after bath application of GRP(14-27)-NPP (3 μM, n = 5 cells from 4 mice) or GRP(14-27) (300 nM, n = 5 from 4 mice), recorded from fluorescently labeled VIP interneurons in layer 1 of the motor cortex. Data are expressed as the mean ± SEM. […] Data are expressed as the mean ± SEM. […] Data are expressed as the mean ± SEM. […] Data are expressed as the mean ± SEM. […]

[3] = test system: locus coeruleus; conditions: bath applied; cited from earlier work
Description: Although extracellular peptidases are known to limit peptide concentrations in the nervous system, how they shape the temporal dynamics of neuropeptide signaling in the brain is poorly understood. For example, rapid proteolysis by peptidases localized near peptide receptors might limit the peak concentration of peptide and thus the degree of receptor activation.

[4] = test system: its receptors (GRP receptors); conditions: cited from earlier work
Description: This motif is associated with immature neuropeptides that are likely not intended for receptor binding. […] We therefore reasoned that inclusion of the entire C-terminal amidation sequence might be particularly effective at reducing binding affinity if incorporated into C-terminally caged peptides, especially due to the presence of bulky, positively charged amino acids found in the dibasic motif. To mimic the proneuropept ...

Question: Which quantum yield [1] does the source give for `COc1ccc([N+](=O)[O-])c2c1CCN2C(=O)CC[C@H](N)C(=O)O` [MNI-glutamate, 4-Methoxy-7-nitroindolinyl-caged-L-glutamate] here?
Answer: 0.065

Question: Which “block of light-evoked CCK(8S)-NPP current” value [2] does the source give for `Cc1cccc(NC(=O)N[C@@H]2N=C(c3ccccc3)c3ccccc3N(CC(=O)c3ccccc3C)C2=O)c1` [YM022, (R)-N-[2,3-Dihydro-1-[2-(2-methylphenyl)-2-oxoethyl]-2-oxo-5-phenyl-1H-1,4-benzodiazepin-3-yl]-N'-(3-methylphenyl)-urea] here?
Answer: strongly attenuated

Question: With enkephalin as the molecule, how does the “increase of potency by peptidase inhibition” value [3] read?
Answer: 10 fold

B1: progastrin-releasing peptide: prohormone of gastrin-releasing peptide, literature finding (protein, UniProt P07492 24-148, looked up)
pro-form: VPLPAGGGTVLTKMYPRGNHWAVGHLMGKKSTGESSSVSERGSLKQQLREYIRWEEAARNLLGLIEAKENRNHQPPQPKALGNQQPSWDSEDSSNFKDVGSKGKVGRLSAPGSQREGRNPQLNQQ
modifications: pro-form
notes: prohormone of gastrin-releasing peptide, literature finding
Question: For B1, which receptor binding [4] is on record?
Answer: does not bind
